Results: ChEMBL document CHEMBL3507680, “University of Dundee, Gates Library screen for HepG2 cell viability”

Experiment: Human HepG2 cell viability assay in 384 well format
Assay type: toxicity, cell-based
Design: dose 125 nL, time 70.5 hour; cytotoxicity at 70.5 h: concentration not given beside the values
Conditions: HepG2 cells, read-out: Inhibition

SMILES | cytotoxicity at 70.5 h
Cc1cc(C)n(CCCN(C)C(=O)[C@H]2CCCO2)n1 | -14.9%
O=C(c1ccc(-c2cccc3c2CCNC3)o1)N1CCCC1 | -9.64%
Cc1ccc(-c2nc3cc(S(=O)(=O)N4CCCC4)ccc3n2C)o1 | -11.7%
CCC(C(=O)NCC1CCN(c2cnn(C)c(=O)c2)CC1)n1cccn1 (stereo not given) | -7.23%
Cc1nc2cc(OCc3nc(C(=O)NC(CO)CO)co3)ccc2s1 | -8.5%
CCn1c(CN(C)C)nnc1C1CCN(Cc2ccc(Cl)cc2)CC1 | 0.347%
COc1ccc(-c2nccn2CCN2CCCCC2)c(OC)c1OC | 4.66%
CN(C)CCNc1cc(-c2ncccc2C(F)(F)F)c2cc[nH]c2n1 | -6.02%
Cc1cccnc1CN1CCN(Cc2ccc(-c3cc[nH]n3)o2)CC1 | -7.65%
O=C1CC(NS(=O)(=O)N2CCOCC2)CN1CCc1ccccc1 (stereo not given) | -3.7%
Cc1ccccc1N1CCCN(C(=O)CN2C(=O)OC[C@@H]2C(C)C)CC1 | 25.8%
O=C1NCCN2CCN(C(=O)NCCc3ccccc3)CC12 (stereo not given) | -9.06%
CCn1c(CN(C)C)nnc1C1CCN(Cc2ccc(C)s2)CC1 | -2.28%
Cc1ccc(CSc2nc(N)cc(NCCC(N)=O)n2)cc1 | -0.193%
CN(CCc1ccccn1)C(=O)CCC1CCCN(c2cnccn2)C1 (stereo not given) | 2.36%
CN(Cc1nc(-c2ccccc2)no1)C(=O)CNS(C)(=O)=O | -8.66%
Cc1cc(N2CCN(C(=O)[C@@H]3C[C@@H]4C=C[C@H]3C4)CC2)cc(C)n1 | -15.6%
CC(C)[C@@H]1CN(S(=O)(=O)Cc2ccccc2)C[C@H]1C(=O)O | -3.52%
CC(=O)c1cc(CN2C[C@H]3CC[C@@H]2CN(S(C)(=O)=O)C3)cs1 | 13.8%
Cc1nc2c(c(=O)n1C)CN(C(=O)C1CCCN(C(N)=O)C1)C2 (stereo not given) | -4.13%
OC1CCN(CCCNc2nccc(C3CCCC3)n2)CC1 | -2.73%
CC(=O)N1CCN(Cc2ccc(F)c(C(F)(F)F)c2)CC(O)C1 (stereo not given) | -8.55%

SMILES | cytotoxicity at 70.5 h
CCOCCCNC(=O)C1CCC(=O)N(CCc2ccc(Cl)cc2)C1 (stereo not given) | -7.25%
CCN1CCN(C(=O)c2cc(C(F)(F)F)n[nH]2)[C@H]2CS(=O)(=O)C[C@H]21 | -18.6%
Cc1cccc(=O)n1CCC(=O)N1CC[C@@](O)(C2CCC2)[C@H](C)C1 | -9.83%
O=C1CCC(C(=O)N2CCOC(Cc3cccc4ccccc34)C2)=NN1 (stereo not given) | 18.7%
CCOC(=O)CC1CCCCN1C(=O)c1cccc2ccnn12 (stereo not given) | -6.11%
CC(=O)Nc1ccc(CN(C)Cc2snnc2C)cc1 | -5.27%
Cc1c[nH]c(CN(C)C(=O)CCn2cnc3ccccc32)n1 | -1.23%
COc1ccc(/C=C/CN2C[C@H]3CC[C@@H]2CN(S(=O)(=O)N(C)C)C3)cc1 | -5.26%
Cc1cc(C(=O)N2CC(O)CO2)c2ccc(C)c(C)c2n1 (stereo not given) | -6.82%
Cn1nnnc1SCCNC(=O)C1CCN(C(=O)C2CCC2)CC1 | -5.55%
Fc1ccc2[nH]c(C3CCCN3Cc3c[nH]cn3)nc2c1 (stereo not given) | 28.4%
COc1cccc(Cn2ncnc2COC(C)C)c1 | -15.5%
CCOC(=O)CCNC(=O)N1CCCC(CNC(=O)c2cccs2)C1 (stereo not given) | -6.29%
COc1ccc2[nH]nc(CN3CCC(C(C)N4CCCC4)CC3)c2c1 (stereo not given) | -1.99%
COCC(Nc1ncnc2c1CCNCC2)c1ccccn1 (stereo not given) | -12.5%
Cc1nn(C)c2nc(N(CCN(C)C)CC3CCCO3)sc12 (stereo not given) | -7.79%
CCCc1cc(C(=O)NCCC2=CCCCC2)[nH]n1 | -9.53%
O=C1NCCN1CCNCC1(O)CCCN(CCC2CCCCC2)C1=O (stereo not given) | -4.14%
CCCn1cc(C(=O)N[C@H]2CC[C@H](n3cnnc3)CC2)c(C)n1 | 0.742%
COc1ccc2cc(CN(C)CCc3cn[nH]c3)c(=O)[nH]c2c1 | -6.43%
CC(O)c1cccc(-n2c(CCC(=O)O)nc3ccccc32)c1 (stereo not given) | -8.25%
COc1nc2ccn(CCNc3cc(C)ccn3)c(=O)c2cc1C#N | -3.78%

SMILES | cytotoxicity at 70.5 h
CC(C)CCN(C)C(=O)c1cc(CN2CCC(O)CC2)on1 | -0.516%
Cc1nc[nH]c1CN1CCN(C(=O)CN2CCCC2)[C@H]2CS(=O)(=O)C[C@H]21 | 3.25%
COCc1nc(CNC(=O)c2cc(C)c(C)[nH]c2=O)no1 | 2.71%
CCc1nccn1CCC(=O)N1CCN(c2ccccc2C)CC1C (stereo not given) | -10.2%
CCCN1CCN(C(=O)c2cc3ccccc3cn2)[C@H]2CS(=O)(=O)C[C@H]21 | -12%
COCc1ccc(C(=O)N2CCC(Oc3ccccc3OC)CC2)s1 | -15%
CC(C)CN1CCc2[nH]cnc2C12CCN(C(=O)c1ccnn1C)CC2 | -2.45%
Cc1nc(CC(=O)N2CCN(CCOc3ccccc3)CC2)cs1 | -10.1%
c1ccc(CN2CCC(CCNc3ncnc4c3CCNCC4)C2)cc1 (stereo not given) | -2.61%
CCCN1C(=O)[C@H]2CC[C@@H]1CN(S(=O)(=O)c1cccc(Cl)c1)C2 | -9.33%
CC(C)c1ccc(C#N)c(N2CC(C)(C)[C@@](C)(O)C2)n1 | -17.8%
C[C@@H]1CN(C2CCN(Cc3nn(C)c4cccc(Cl)c34)CC2)C[C@H](C)O1 | 25.7%
CC[C@@]1(O)CCN(C(=O)CCc2cnn(C)c2)C[C@H]1O | -9.56%
Cc1n[nH]c(C)c1CN(C)C(C(=O)O)c1ccc2c(c1)OCO2 (stereo not given) | 6.84%
CC(=O)c1ccc(NC(=O)N(CCN(C)C)Cc2ccc(C)s2)cc1 | 2.42%
CCNc1ncc(C(=O)N(C)Cc2nc3ccccc3n2C)cn1 | -2.99%
CC(c1ccccc1)n1c(SCC(=O)O)nnc1-c1ccn[nH]1 (stereo not given) | -5.88%
O=C(O)C1(Oc2ccc3c(c2)OCO3)CCN(C2CCOCC2)CC1 | -14.1%
CC(C)(C)c1noc(-c2nc3c([nH]2)CCCNC3=O)n1 | -4.9%
CCCC1COCCN1Cc1ccc(NC(C)=O)cc1 (stereo not given) | -3.46%
CCNC(=O)[C@@H]1C[C@@H](NC(=O)c2ccc(C)cc2O)CN1CCCSC | -3.38%
Cc1cc2cccc(C(=O)N3CCOC4(CNCCOC4)C3)c2o1 (stereo not given) | 32.7%

SMILES | cytotoxicity at 70.5 h
CCn1nc(C)c(CCNC(=O)C2CCCN(C3CCCC3)C2)c1C (stereo not given) | 20.4%
COc1cccc(N2CCN(CC[C@H](O)c3ccccc3)CC2=O)c1 | -10.7%
CCCC1CCN(C(=O)c2coc(COc3ccc(OC)cc3)n2)C1 (stereo not given) | -3.1%
O=C(Cn1ccnc1)N1CCC(n2cc(-c3cccc(Cl)c3)nn2)CC1 | 22.5%
CCCc1nnc(N2CC[C@](C)(O)[C@H](C)C2)s1 | 8.74%
COCCC(=O)N[C@H]1CN(c2nc(C)c3c(n2)CCCC3)C[C@@H]1C1CC1 | -9.64%
CCC(C(=O)N1CCN(C(=O)N2CCOCC2)CC1)n1cccn1 (stereo not given) | -5.93%
Cc1c(CN2CC[C@@H](N3CCC(O)CC3)[C@H](O)C2)[nH]c2ccc(F)cc12 | -2.56%
CCn1c(CN(C)C)nnc1C1CCN(Cc2cnc(C)nc2)CC1 | -5.5%
Cc1cccc(-n2ncc3c2CCCC3NCc2cccc(O)c2)c1C (stereo not given) | -3.55%
Cc1ccsc1-c1nccn1CCN(C)S(C)(=O)=O | -1.88%
Cc1ccc2c(c1)SCC(=O)N2CC(=O)N1CCCC1c1nccs1 (stereo not given) | -14%
O=C(c1cccnc1O)N1CCCC2(C=Cc3ccccc3O2)CC1 (stereo not given) | -4.51%
CNc1ncc(CN(C)C(=O)c2c[nH]nc2-c2cccc(F)c2)cn1 | -6.7%
CC(C)N1CCC(C(=O)N2CCC(C(O)c3nccn3C)CC2)CC1 (stereo not given) | -11.2%
CCOCc1nc(CSc2ccncc2)n(C)n1 | 6.25%
CCOC(=O)N1CCN(C(=O)C2Cc3ccccc3CN2C)CC1 (stereo not given) | 2.75%
O=C1CC2(CCCC2)CC(=O)N1Cc1ncccn1 | 19.8%
CCc1oc(C(=O)N2CCC(N(CC)C(C)=O)C2)cc1CN(CC)CC (stereo not given) | -12.3%
Cc1nc(C)n(CC(C)C(=O)N2CCC(NS(C)(=O)=O)CC2)n1 (stereo not given) | 34.2%
CC(C)CS(=O)(=O)CCNC(=O)Nc1cccc2ncccc12 | 19.9%
COc1ccc(C(=O)C2CCCN(Cc3ccccc3O)C2)c(OC)c1 (stereo not given) | 35.7%

SMILES | cytotoxicity at 70.5 h
COc1cc(C)c(CN2CCC3(CC2)[C@H](O)C[C@@H]3OCCN)cc1C | 28.1%
Cc1ccsc1CN(CCN(C)C)C(=O)c1ccccc1C#N | -0.2%
CCN1CCCC(c2c(-c3ccccc3)ncn2CCCO)C1 (stereo not given) | -8.57%
CCn1c(C)nnc1SCCNc1cc(N2CCOCC2)ncn1 | -18.8%
CC(Cc1ccccn1)N(C)Cc1ccc2c(c1)CCO2 (stereo not given) | -8.85%
CCc1cc(CN(C)C(=O)C2CC(=O)N(c3cccc(O)c3)C2)on1 (stereo not given) | -1.3%
COCCC1(CO)CCCN(CCCc2ccccc2)C1 (stereo not given) | 22.6%
O=C(c1csc(-c2ccc(C(F)(F)F)cc2)n1)N1CCCNCC1 | -2.7%
CCC[C@@H]1CN(C(=O)c2ccccc2-c2ccccc2)C[C@H]1N(C)C | 0.165%
CN(C)c1nc2c(c(NCc3cc(O)ncn3)n1)CCCC2 | -4.94%
CC(C)Nc1cc(N2CCC(n3cc(C4CC4)nn3)CC2)ncn1 | 23.9%
Cc1cccc(CN2CCCC3(CCN(C4CCSCC4)C3)C2=O)c1 (stereo not given) | 7.94%
Cc1nc(CN2CCCCC2CCc2ccc(O)cc2)no1 (stereo not given) | 6.16%
Cc1ccccc1C1CCCN(C(=O)c2c[nH]c(=O)c(Cl)c2)C1 (stereo not given) | -12%
O=C(O)C(c1ccc2[nH]ccc2c1)N1CCOCC1 (stereo not given) | 9.07%
Cc1ccsc1CNc1ccccc1C(=O)N1CCNC(=O)C1 | 16.9%
O=S(=O)(c1cccc(F)c1)N1C[C@@H]2CC[C@H](C1)N(Cc1ccccc1)C2 | -12.7%
CCN1CC(C(=O)N(C)Cc2cc3cc(F)ccc3[nH]2)CC1=O (stereo not given) | -0.954%
CC(C)Oc1ccc(CN2CCCC(N3CCCC3)C2)cc1CO (stereo not given) | 2.77%
O=C(c1ccc2cccc(F)c2n1)N1CCN(CCn2cccc2)CC1 | 9.26%
O=C(c1ccc(-c2cccc3c2CCNC3)o1)N1CCOCC1 | -6.54%
Cc1csc2ncn(C(C)Cc3cccnc3)c(=O)c12 (stereo not given) | -4.53%
